How the values were obtained:
EP2 receptor = molecular target: T1, EP2 receptor (Homo sapiens, UniProt P43116); assay: EP2 potency assay (cAMP TR-FRET, LANCE Ultra cAMP kit, antagonism of prostaglandin E2 at EC80); type: cell-based; conditions: CHO-K1 cells transfected with EP2 receptor
T1 construct: expressed in transfected cells; host or cells: CHO-K1 cells (ATCC), transiently transfected with FuGENE 6
Description: Compound potency was measured using a cAMP TR-FRET assay.
CHO-K1 cells (ATCC) were seeded at a density of 9.75×10^5 in 6 cm plates, and then on the following day cell media was changed to Opti-Mem I reduced serum media (Gibco), and transfected with a plasmid for expression of the EP2 receptor (the target receptor of interest), using the FuGENE 6 Transfection reagent (Promega). After 6 hours incubation, the cell media was replaced with F12 medium supplemented with 10% FBS and 100 U/ml Pen-Strep. 24 hours after transfection, cells were harvested and seeded at a density of 3000 cells/well in a 384 well plate to perform the cAMP assay, using the LANCE Ultra cAMP assay kit (PerkinElmer).
For each test compound of interest, 10 nl/well of serially diluted test compound was added to each well, resulting in a range of 10 serially diluted compound concentrations from 10000 nM to 0.038 nM, with duplicate wells for each concentration. Plates were then centrifuged at 1000 rpm for 1 min, agitated at 600 rpm at R.T. for 2 min, and incubated at 25° C. for 5 min. The reference agonist, prostaglandin E2 (MCE), was added to each well at the appropriate concentration to reach its EC80 value. Plates were then centrifuged at 1000 rpm for 1 min, agitated at 600 rpm at R.T. for 2 min, and incubated at 25° C. for 30 min.
To measure levels of cAMP, 5 μl/well of Eu-cAMP working solution and 5 μl/well of Ulight-anti-cAMP working solution were added to each well, and plate was centrifuged at 1000 rpm for 1 min, agitated at 600 rpm at R.T. for 2 min, and incubated at 25° C. for 15 min. Levels of TR-FRET fluorescence were measured in each well using an EnVision microplate reader (excitation wavelength=337 nm and emission wavelength=615 and 665 nm). A dose-response curve was prepared by plotting percent inhibition for each compound concentration, and then IC50 was calculated by fitting a curve to the plotted values and extrapolating the IC50 concentration.
Potency data is grouped into categories of AA (IC50<100 nM); A (IC50=100 to 500 nM); B (IC50=500 nM to 1 μM); C (IC50=1 μM to 5 μM); and D (IC50>5 μM).

[1] = Human liver microsome stability; type: in vitro ADME; conditions: human liver microsomes 0.5 mg/mL, 37° C., 60 minutes; for half-life at 2 μM: read-out: T1/2 (microsomal); for microsomal CLint at 2 μM: read-out: in vitro CLint (microsomal)
Description: The tested compound was incubated in duplicate with human liver microsomes (0.5 mg/mL) at 37° C. These incubations were carried out at a final test article concentration of 2 μM over a total incubation period of 60 minutes. Samples were taken at 0, 15, 30, 45 and 60 min and the reaction terminated by addition of 4 volumes of acetonitrile containing internal standard (100 nM alprazolam, 200 nM imipramine, 200 nM labetalol and 2 μM ketoprofen). Diclofenac was used as a positive control in this study. The samples were analyzed by UPLC-MS/MS to determine the concentration of the test compound and the percent remaining, intrinsic clearance (in vitro CLint) and half-life (t1/2) values were calculated.
(§1) Chromatographic analyses were performed on a Shimadzu UPLC apparatus (Kyoto, Japan) consisting of a gradient pump (model LC-30AD), an automatic injector (model HTC PAL System) and an on-line degasser (model DGU-20A5R). Detection was a triple quadrupole tandem mass spectrometer equipped with a turbo ion spray interface (API 4000/Triple Quad 4500/Triple Quad 5500/Triple Quad 6500). Data acquisition and integration were carried out with LC-MS software (Analyst 1.6) linked directly to the LC-MS/MS system. Chromatographic separations were achieved on a XSelect Hss T3 2.5μ (2.1×30 mm) Column. The mobile phase was 0.1% formic acid in water (A) and 0.1% formic acid in acetonitrile (B). The flow rate was 1.0 mL/min and column was maintained at 40° C.
(§2) Half-life (T1/2) data is measured in minutes, and in Table B2, in both microsomal and hepatic assays, the data is grouped into categories of: • A T1/2=1000+ • B T1/2=500 to 1000 • C T1/2=100 to 500 • D T1/2<100
(§3) In vitro clearance (CLint) data is measured in μL/min/mg prot, and in Table B2, in both microsomal and hepatic assays, the data is grouped into categories of: • A CLint<1 • B CLint=1 to 10 • C CLint=10 to 20 • D CLint=20+

[2] = Human hepatocyte stability; type: in vitro ADME; conditions: human hepatocytes 0.5×10^6 cells/mL, 120 minutes; for half-life at 1 μM: read-out: T1/2 (hepatic); for microsomal CLint at 1 μM: read-out: in vitro CLint (hepatic)
Description: The tested compound was incubated in duplicate with incubation media (Williams' Medium E with 1× GlutaMAX) containing human hepatocytes (0.5×10^6 cells/mL). These incubations were carried out at a final test concentration of 1 μM over a total incubation period of 120 minutes. Samples were taken at 0, 15, 30, 60, 90 and 120 min and the reaction was terminated by addition of acetonitrile containing internal standard (100 nM alprazolam, 200 nM labetalol, 200 nM caffeine and 200 nM diclofenac). Verapamil was used as the positive control in this study. The samples were analyzed by UPLC-MS/MS to determine the concentration of the tested compound and the percentage remaining, intrinsic clearance (in vitro CLint) and half-life (t1/2) values were calculated.
as §1, §2, §3

T1 sequence (P43116 whole entry): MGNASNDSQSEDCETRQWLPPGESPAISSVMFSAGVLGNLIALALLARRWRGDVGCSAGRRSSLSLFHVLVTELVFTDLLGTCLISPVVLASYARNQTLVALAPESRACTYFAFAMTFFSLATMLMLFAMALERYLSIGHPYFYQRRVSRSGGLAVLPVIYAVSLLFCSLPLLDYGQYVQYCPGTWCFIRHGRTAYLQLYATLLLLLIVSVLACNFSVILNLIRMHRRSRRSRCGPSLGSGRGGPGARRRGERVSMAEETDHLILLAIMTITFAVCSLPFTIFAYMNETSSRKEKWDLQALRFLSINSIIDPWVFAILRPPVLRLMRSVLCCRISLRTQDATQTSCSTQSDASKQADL

| Structure (SMILES) | IC50 (EP2 receptor) [nM] | half-life at 2 μM [1] [h] | microsomal CLint at 2 μM [1] [µL/min/mg] | half-life at 1 μM [2] [h] | microsomal CLint at 1 μM [2] [µL/min/mg] |
| --- | --- | --- | --- | --- | --- |
| COc1ccc(C(=O)N2CCC(COc3ccc(-c4ccc(C#N)cc4)cc3)(n3nn[nH]c3=O)C2)cc1 (racemic) [Compound 2-2, 4′-((1-(4-methoxybenzoyl)-3-(5-oxo-4,5-dihydro-1H-tetrazol-1-yl)pyrrolidin-3-yl)methoxy)-[1,1′-biphenyl]-4-carbonitrile] | 500 to 1000 | 8.33 to 16.7 | 1 to 10 | – | – |
| COc1ccc(C(=O)N2CCC(C#N)(COc3ccc(-c4ccc(C#N)cc4)cc3)C2)cc1 (racemic) [Compound 2-3, 3-(((4′-cyano-[1,1′-biphenyl]-4-yl)oxy)methyl)-1-(4-methoxybenzoyl)pyrrolidine-3-carbonitrile] | – | < 1.67 | > 20 | – | – |
| COc1ccc2cc(OCC3(n4nn[nH]c4=O)CN(C(=O)c4ccc(F)cc4)C3)ccc2c1 [Compound 1-2, 1-(1-(4-fluorobenzoyl)-3-(((6-methoxynaphthalen-2-yl)oxy)methyl)azetidin-3-yl)-1,4-dihydro-5H-tetrazol-5-one] | – | 1.67 to 8.33 | 1 to 10 | – | – |
| COc1ccc2cc(OCC3(C#N)CN(C(=O)c4ccc(F)cc4)C3)ccc2c1 [Compound 1-3, 1-(4-fluorobenzoyl)-3-(((6-methoxynaphthalen-2-yl)oxy)methyl)azetidine-3-carbonitrile] | – | < 1.67 | > 20 | – | – |
| COc1ccc(C(=O)N2CCC(COc3ccc(-c4ccc(C#N)cc4)cc3)(C(=O)O)C2)cc1 (centres unmarked) [Ref, reference compound] | – | 8.33 to 16.7 | 1 to 10 | 1.67 to 8.33 | 1 to 10 |

Next, values leading:

| IC50 (EP2 receptor) [nM] | half-life at 2 μM [1] [h] | microsomal CLint at 2 μM [1] [µL/min/mg] | half-life at 1 μM [2] [h] | microsomal CLint at 1 μM [2] [µL/min/mg] | Structure (SMILES) |
| --- | --- | --- | --- | --- | --- |
| < 100 | > 16.7 | < 1 | > 16.7 | < 1 | COc1ccc(C(=O)N2CCC(COc3ccc(-c4ccc(C#N)cc4)cc3)(C(=O)NS(C)(=O)=O)C2)cc1 (centres unmarked) [Compound 4-19, 3-(((4′-cyano-[1,1′-biphenyl]-4-yl)oxy)methyl)-1-(4-methoxybenzoyl)-N-(methylsulfonyl)pyrrolidine-3-carboxamide] |
| 100 to 500 | 1.67 to 8.33 | 1 to 10 | 8.33 to 16.7 | 1 to 10 | COc1ccc(C(=O)N2CCC(COc3ccc(-c4ccc(C#N)cc4)cc3)(C(=O)NS(=O)(=O)C(F)(F)F)C2)cc1 (centres unmarked) [Compound 4-24, 3-[({4′-cyano-[1,1′-biphenyl]-4-yl}oxy)methyl]-1-(4-methoxybenzoyl)-N-trifluoromethanesulfonylpyrrolidine-3-carboxamide] |
| 1000 to 5000 | – | – | – | – | COc1ccc(C(=O)N2CCC(COc3ccc(-c4ccc(C#N)cc4)cc3)(C(=O)NS(=O)(=O)C3CC3)C2)cc1 (centres unmarked) [Compound 4-30, 3-[({4′-cyano-[1,1′-biphenyl]-4-yl}oxy)methyl]-N-(cyclopropanesulfonyl)-1-(4-methoxybenzoyl)pyrrolidine-3-carboxamide] |
| > 5000 | – | – | – | – | COc1ccc(C(=O)N2CCC(COc3ccc(-c4ccc(C#N)cc4)cc3)(C(=O)NS(=O)(=O)c3ccccc3)C2)cc1 (centres unmarked) [Compound 4-31, N-(benzenesulfonyl)-3-[({4′-cyano-[1,1′-biphenyl]-4-yl}oxy)methyl]-1-(4-methoxybenzoyl)pyrrolidine-3-carboxamide] |
| > 5000 | – | – | – | – | N#Cc1ccc(-c2ccc(OCC3(C(=O)O)CCN(C(c4ccc(Br)cc4)C(F)(F)F)C3)cc2)cc1 (centres unmarked) [Compound 4-34, 1-[1-(4-bromophenyl)-2,2,2-trifluoroethyl]-3-[({4′-cyano-[1,1′-biphenyl]-4-yl}oxy)methyl]pyrrolidine-3-carboxylic acid] |
